Structures can show the parent of a compound that is named as a salt.

In the experiment the target is T1, Na+/H+ exchanger of rabbit erythrocytes (Oryctolagus cuniculus, UniProt P23791).
T1 construct: endogenous in cells; host or cells: erythrocytes in fresh heparinised blood of White New Zealand rabbits (Ivanovas)
T1 sequence (P23791 whole entry): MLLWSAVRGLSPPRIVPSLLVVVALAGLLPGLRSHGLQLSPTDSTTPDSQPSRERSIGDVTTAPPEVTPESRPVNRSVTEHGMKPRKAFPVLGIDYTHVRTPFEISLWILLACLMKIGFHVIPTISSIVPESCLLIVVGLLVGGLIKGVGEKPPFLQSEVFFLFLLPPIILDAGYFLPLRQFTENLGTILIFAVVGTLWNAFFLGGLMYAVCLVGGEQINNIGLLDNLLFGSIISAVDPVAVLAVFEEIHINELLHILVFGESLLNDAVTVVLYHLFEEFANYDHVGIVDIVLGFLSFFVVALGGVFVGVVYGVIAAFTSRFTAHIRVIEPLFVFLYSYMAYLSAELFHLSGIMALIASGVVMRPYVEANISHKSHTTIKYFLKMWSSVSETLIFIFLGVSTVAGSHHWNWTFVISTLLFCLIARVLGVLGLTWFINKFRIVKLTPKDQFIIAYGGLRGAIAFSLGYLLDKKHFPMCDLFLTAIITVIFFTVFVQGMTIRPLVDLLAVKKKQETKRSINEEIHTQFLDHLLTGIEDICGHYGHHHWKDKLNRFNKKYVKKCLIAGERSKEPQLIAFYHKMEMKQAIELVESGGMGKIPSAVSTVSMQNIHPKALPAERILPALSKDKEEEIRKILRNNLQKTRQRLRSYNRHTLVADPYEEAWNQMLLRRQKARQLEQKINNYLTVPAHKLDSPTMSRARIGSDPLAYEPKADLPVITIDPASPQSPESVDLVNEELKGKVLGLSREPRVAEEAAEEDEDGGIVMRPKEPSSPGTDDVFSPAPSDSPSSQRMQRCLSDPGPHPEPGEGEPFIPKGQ
The experiment in a line: Inhibition of the Na+/H+ exchanger of rabbit erythrocytes (amiloride-sensitive sodium influx, flame photometry). The conditions noted are these: hyperosmolar salt/sucrose medium, pH 7.4, 37° C. The format is cell-based. An excerpt: Inhibition of the Na^+ /H^+ Exchanger of Rabbit Erythrocytes White New Zealand rabbits (Ivanovas) received a standard diet with 2% cholesterol for six weeks in order to activate the Na^+ /H^+ exchange and thus to be able to determine the Na^+ influx into the erythrocytes via Na^+ /H^+ exchange by flame photometry. The blood was removed from the auricular arteries and rendered uncoagulable by means of 25 IU of potassium heparin. A part of each sample was used for the duplicate determination of the hematocrit by centrifugation. Aliquots of 100 μl in each case served for the measurement of the Na^+ starting content of the erythrocytes. In order to determine the amiloride-sensitive sodium influx, 100 μl of each blood sample in 5 ml in each case of a hyperosmolar salt/sucrose medium (mmol/I: 140 NaCl, 3 KCl, 150 sucrose, 0.1 ouabain, 20 tris-hydroxymethyl-aminomethane) were incubated at pH 7.4 and 37° C. The erythrocytes were then washed three times with ice-cold MgCl^2 /ouabain solution (mmol/I: 112 MgCl2, 0.1 ouabain) and hemolyzed in 2.0 ml of distilled water. The intracellular sodium content was determined by flame photometry. The Na^+ net influx was calculated from the difference between sodium starting values and the sodium content of the erythrocytes after incubation. The amiloride-inhibitable sodium influx followed from the difference in the sodium content of the erythrocytes after incubation with and without amiloride 3×10^-4 mol/I. The procedure was the same in the case of the compounds according to the invention.
As for `COc1ccc(C2NC(N)=Nc3ccccc32)cc1` (stereo not drawn) [Example 1, 2-Amino-4-(4-methoxyphenyl)-3,4-dihydroquinazoline Hydrochloride], the concentration for half-maximal inhibition (IC50) came out at 3.4 µM.
To `COc1ccc(C2NC(N)=Nc3ccccc32)cc1OC` (stereo not drawn) [Example 2, 2-Amino-4-(3,4-dimethoxyphenyl)-3,4-dihydroquinazolinium Fumarate] belongs 3.2 µM; to `COc1ccc(C2c3ccccc3N=C(N)N2C)cc1OC` (stereo not drawn) [Example 3, 2-Amino4-(3,4-dimethoxyphenyl)-3-methyl-3,4-dihydro-quinazolinium Fumarate], 4.1 µM.

In general, IC50 refers to the concentration that inhibits the measured activity by half.
